{"source": "patent US20230172959A1", "about": "“USE OF NMN FOR THE PREVENTION AND/OR TREATMENT OF A BACK PAIN AND CORRESPONDING COMPOSITIONS” (NUVAMID SA, priority 2020, published 2023)", "format_in_all_cases": "in vivo, human", "key": {"[1]": {"test": "Adverse side effects and allergies reported by the volunteers", "settings": "10 days topical use of 5% NMN emulsion, 12 volunteers", "description": "A satisfaction study was carried out on a group of 12 volunteers, aged 42±8 years, consisting of seven female and five male subjects. The main objective of this study was to evaluate the level of satisfaction of subjects with regard to the evolution of their lumbalgia (low back pain) during the morning and/or evening application of a composition according to the invention containing 5% by weight of NMN.\nA composition in the form of an oil-in-water emulsion comprising 5% NMN was formulated as follows, the ingredients being designated by their INCI (International Nomenclature of Cosmetic Ingredients) name: Aqua, Paraffinum liquidum, Cetyl alcohol, Glyceryl stearate, Benzyl PCA, Ceteareth-20, Ceteareth-12, Cetyl Palmitate, Cocoglycerides, Cetearyl alcohol, Sodium Hydroxide, NMN. The composition was prepared according to any method well known to the person skilled in the art.\nOver the subsequent 9 day period, each evening the subjects fill in the Visual Analogue Scale of pain, ensuring any discomfort or problems arising or the taking of analgesics are reported therein."}, "chronic lumbalgia [2]": {"system": "chronic lumbalgia", "test": "Visual Analogue Scale (VAS) of lumbalgia pain, 10-day satisfaction study in 12 volunteers", "settings": "for VAS lumbalgia pain, median / VAS lumbalgia pain, mean: 5% NMN oil-in-water emulsion topical twice a day, scale 0-100; for VAS lumbalgia pain, median: baseline D 0 72.5; for VAS lumbalgia pain, mean: baseline D 0 73.4", "description": "A satisfaction study was carried out on a group of 12 volunteers, aged 42±8 years, consisting of seven female and five male subjects. The main objective of this study was to evaluate the level of satisfaction of subjects with regard to the evolution of their lumbalgia (low back pain) during the morning and/or evening application of a composition according to the invention containing 5% by weight of NMN. The duration of the existence of pains in the lumbar spine region was on average 4±3 years (ie […]) while the current pains of the subjects dated back to 2±3 years pre-baseline (before inclusion). These pains occurred mostly spontaneously (58.3%). More precisely, seven participants presented with a lumbalgia of spontaneous origin, one participant presented with a lumbalgia resulting from a physical or sporting activity, two participants attributed their lumbalgia to the practice of gardening, and two other participants attributed their lumbalgia to another of these causes. The participants therefore all had chronic lumbalgia. A composition in the form of an oil-in-water emulsion comprising 5% NMN was formulated as follows, the ingredients being designated by their INCI (International Nomenclature of Cosmetic Ingredients) name: Aqua, Paraffinum liquidum, Cetyl alcohol, Glyceryl stearate, Benzyl PCA, Ceteareth-20, Ceteareth-12, Cetyl Palmitate, Cocoglycerides, Cetearyl alcohol, Sodium Hydroxide, NMN. The composition was prepared according to any method well known to the person skilled in the art. The study took place over 10 days. At baseline, ie upon inclusion (DO), the selected subjects provide their demographic characteristics (age, weight, height), indicate the period of persistence and intensity of the pain on a Visual Analogue Scale, and complete the WOMAC and Lequesne questionnaires. These different scales were used in order to assess by different means the effect of NMN on lumbalgia. Over the subsequent 9 day period, each evening the subjects fill in the Visual Analogue Scale of pain, ensuring any discomfort or problems arising or the taking of analgesics are reported therein. On day 10, the volunteers complete the WOMAC questionnaire, the Lequesne questionnaire, the Visual Analogue Scale (VAS) of pain, indicating the perceived improvement in lumbalgia pain relief as measured by the PGI-I index (abbreviation for “Patient Global Improvement Impression”), satisfaction with regard to evolution of the lumbalgia on a Likert scale as well as the ease of application and penetration of the composition, assessment of the texture and odour of the composition, likelihood of re-use thereof in the event of recurrence of a similar pain, and recommendation of use to third parties presenting with pain of similar nature. The PGI-I index is an index that serves as means for evaluating the response to a treatment. The Likert scale is a psychometric tool used for measuring an attitude in individuals, which consists of one or more statements for which the individual responding expresses their degree of agreement or disagreement."}, "chronic lumbalgia [3]": {"system": "chronic lumbalgia", "test": "WOMAC questionnaire, 10-day satisfaction study in 12 volunteers", "description": "More precisely, the WOMAC score is calculated on the basis of the responses to the questions below: The total score corresponds to the average of the 24 items. The same is true for the score for each area of assessment. A satisfaction study was carried out on a group of 12 volunteers, aged 42±8 years, consisting of seven female and five male subjects. The main objective of this study was to evaluate the level of satisfaction of subjects with regard to the evolution of their lumbalgia (low back pain) during the morning and/or evening application of a composition according to the invention containing 5% by weight of NMN. A composition in the form of an oil-in-water emulsion comprising 5% NMN was formulated as follows, the ingredients being designated by their INCI (International Nomenclature of Cosmetic Ingredients) name: Aqua, Paraffinum liquidum, Cetyl alcohol, Glyceryl stearate, Benzyl PCA, Ceteareth-20, Ceteareth-12, Cetyl Palmitate, Cocoglycerides, Cetearyl alcohol, Sodium Hydroxide, NMN. The composition was prepared according to any method well known to the person skilled in the art. The study took place over 10 days. At baseline, ie upon inclusion (DO), the selected subjects provide their demographic characteristics (age, weight, height), indicate the period of persistence and intensity of the pain on a Visual Analogue Scale, and complete the WOMAC and Lequesne questionnaires. These different scales were used in order to assess by different means the effect of NMN on lumbalgia. On day 10, the volunteers complete the WOMAC questionnaire, the Lequesne questionnaire, the Visual Analogue Scale (VAS) of pain, indicating the perceived improvement in lumbalgia pain relief as measured by the PGI-I index (abbreviation for “Patient Global Improvement Impression”), satisfaction with regard to evolution of the lumbalgia on a Likert scale as well as the ease of application and penetration of the composition, assessment of the texture and odour of the composition, likelihood of re-use thereof in the event of recurrence of a similar pain, and recommendation of use to third parties presenting with pain of similar nature. The PGI-I index is an index that serves as means for evaluating the response to a treatment. The Likert scale is a psychometric tool used for measuring an attitude in individuals, which consists of one or more statements for which the individual responding expresses their degree of agreement or disagreement."}, "[4]": {"settings": "after 10 days vs baseline, p<0.001"}}, "note": "Where “and” joins values, the source holds several entries; their conditions need not be identical. Equal values may be shown once.", "data": [{"smiles": "NC(=O)c1ccc[n+]([C@@H]2O[C@H](COP(=O)([O-])O)[C@@H](O)[C@H]2O)c1", "note": "(stereo in doubt) [NMN, nicotinamide mononucleotide]", "values": [{"measurement": "adverse side effects", "setting": "[1]", "result": "neither any adverse side effects"}, {"measurement": "allergies", "setting": "[1]", "result": "nor developed any allergies"}, {"measurement": "reduction of lumbalgia pain measured by the VAS", "setting": "chronic lumbalgia [2]; 10 days of application vs baseline, 5% NMN emulsion topical, p<0.0001", "result": "58.7±29.2% and 58.7%"}, {"measurement": "VAS lumbalgia pain, median", "setting": "chronic lumbalgia [2]; D 1", "result": 60.5}, {"measurement": "VAS lumbalgia pain, mean", "setting": "chronic lumbalgia [2]; D 1", "result": 61.1}, {"measurement": "VAS lumbalgia pain, median", "setting": "chronic lumbalgia [2]; D 2", "result": 59.0}, {"measurement": "VAS lumbalgia pain, mean", "setting": "chronic lumbalgia [2]; D 2", "result": 56.8}, {"measurement": "VAS lumbalgia pain, median", "setting": "chronic lumbalgia [2]; D 3", "result": 57.5}, {"measurement": "VAS lumbalgia pain, mean", "setting": "chronic lumbalgia [2]; D 3", "result": 52.3}, {"measurement": "VAS lumbalgia pain, median", "setting": "chronic lumbalgia [2]; D 4", "result": 51.0}, {"measurement": "VAS lumbalgia pain, mean", "setting": "chronic lumbalgia [2]; D 4", "result": 49.4}, {"measurement": "VAS lumbalgia pain, median", "setting": "chronic lumbalgia [2]; D 5", "result": 45.5}, {"measurement": "VAS lumbalgia pain, mean", "setting": "chronic lumbalgia [2]; D 5", "result": 45.7}, {"measurement": "VAS lumbalgia pain, median", "setting": "chronic lumbalgia [2]; D 6", "result": 42.5}, {"measurement": "VAS lumbalgia pain, mean", "setting": "chronic lumbalgia [2]; D 6", "result": 42.4}, {"measurement": "VAS lumbalgia pain, median", "setting": "chronic lumbalgia [2]; D 7", "result": 48.0}, {"measurement": "VAS lumbalgia pain, mean", "setting": "chronic lumbalgia [2]; D 7", "result": 45.2}, {"measurement": "VAS lumbalgia pain, median", "setting": "chronic lumbalgia [2]; D 8", "result": 38.0}, {"measurement": "VAS lumbalgia pain, mean", "setting": "chronic lumbalgia [2]; D 8", "result": 35.8}, {"measurement": "VAS lumbalgia pain, median", "setting": "chronic lumbalgia [2]; D 9", "result": 26.0}, {"measurement": "VAS lumbalgia pain, mean", "setting": "chronic lumbalgia [2]; D 9", "result": 28.3}, {"measurement": "VAS lumbalgia pain, median", "setting": "chronic lumbalgia [2]; D 10", "result": 30.0}, {"measurement": "VAS lumbalgia pain, mean", "setting": "chronic lumbalgia [2]; D 10", "result": "30.8±22.6 and 30.8"}, {"measurement": "mean time period to obtain an initial 50% reduction in pain relative to baseline", "setting": "chronic lumbalgia [2]; VAS, 5% NMN emulsion topical twice a day", "result": "5.0 ± 2.9", "unit": "days"}, {"measurement": "WOMAC \"function\" criterion", "setting": "chronic lumbalgia [3]; after 10 days of application, baseline 57.1±15.5, 5% NMN emulsion topical", "result": "30.8±21.8"}, {"measurement": "total WOMAC score", "setting": "chronic lumbalgia [3]; after 10 days of application, baseline 58.3±14.8, 5% NMN emulsion topical", "result": "30.9±21.7"}, {"measurement": "WOMAC \"pain\" criterion", "setting": "chronic lumbalgia [3]; after 10 days of application, baseline 59.9±13.1, 5% NMN emulsion topical", "result": "31.0±21.2"}, {"measurement": "WOMAC \"stiffness\" criterion", "setting": "chronic lumbalgia [3]; after 10 days of application, baseline 64.2±21.0, 5% NMN emulsion topical", "result": "31.6±25.0"}, {"measurement": "decrease of total WOMAC score", "setting": "chronic lumbalgia [3]; [4]", "result": "48.6±33.7", "unit": "%"}, {"measurement": "reduction of WOMAC \"pain\" criterion", "setting": "chronic lumbalgia [3]; [4]", "result": "50.1±31.3", "unit": "%"}, {"measurement": "reduction of WOMAC \"stiffness\" criterion", "setting": "chronic lumbalgia [3]; [4]", "result": "52.5±32.9", "unit": "%"}, {"measurement": "reduction of WOMAC \"function\" criterion", "setting": "chronic lumbalgia [3]; after 10 days vs baseline, p<0.01", "result": "47.5±35.6", "unit": "%"}]}]}
